The structures appear in SMILES notation. Where two headings read alike, the source gives them in different places.

The assay relates to PnpA (His-6-PnpA; p-nitrophenol 4-monooxygenase, PnpM). Kind of assay: spectrophotometric monooxygenase assay, Michaelis-Menten. Type of assay: biochemical, Burkholderia sp. SJ98. The text has this:
spectrophotometric monooxygenase assay, Michaelis-Menten on PnpA (His-6-PnpA; p-nitrophenol 4-monooxygenase, PnpM)

With `NC(=O)C1=CN([C@@H]2O[C@H](COP(=O)(O)OP(=O)(O)OC[C@H]3O[C@@H](n4cnc5c(N)ncnc54)[C@H](O)[C@@H]3O)[C@@H](O)[C@H]2O)C=CC1` [NADH], the Km (usually the concentration of substrate that gives half-maximal velocity) turned out to be 96 ± 7.74 µM.

Regarding `O=[N+]([O-])c1ccc(O)cc1` [PNP, p-nitrophenol], the Km (fixed NADH, 0.02 mM FAD, 50 mM phosphate pH 7.4, PNP 12.5-250 µM) worked out at 35.4 ± 5.95 µM.

Values taken from paper PMC3871574, “Genes Involved in Degradation of para-Nitrophenol Are Differentially Arranged in Form of Non-Contiguous Gene Clusters in Burkholderia sp. strain SJ98” (PLoS ONE, 2013).
